Laboratory results from patent publication US12528826B2, “[1,4]oxazepino[2,3-c]quinolinone derivatives as BCL6 inhibitors” (Cancer Research Technology Limited, priority 2019, dated 2026).

The compounds below were run against T1, Trx-6×His-BCL6 (human BCL6 BTB domain covering amino-acid sequence 5-129) (Homo sapiens, UniProt P41182) (assay: HTRF assay (BCL6 / BCOR peptide)). Conditions: 1 nM Trx-6×His-BCL6, 300 nM BCOR-AF633 peptide, 2 hours incubation at room temperature.
T1 construct: made in house
Assay type: binding
Method: After 2 hours incubation at room temperature the plate was read on a Pherastar FSX (BMG Labtech) plate reader equipped with 337 nm laser excitation filter, a first emission filter at 620 nm and a second emission filter at 665 nm. The % inhibition at each concentration was calculated by normalising FRET ratio to the appropriate high (DMSO with all reagents) and low (DMSO without BCL6) controls.

Row | Compound | HTRF avg pIC50
1 | (S)-10-((5-chloro-2-((3R,4S)-3-(hydroxymethyl)-4-methylpyrrolidin-1-yl)pyrimidin-4-yl)amino)-2-cyclopropyl-3,3-difluoro-7-methyl-1,2,3,4-tetrahydro-[1,4]oxazepino[2,3-c]quinolin-6(7H)-one:(S)-10-((5-chloro-2-((3S,4R)-3-(hydroxymethyl)-4-methylpyrrolidin-1-yl)pyrimidin-4-yl)amino)-2-cyclopropyl-3,3-difluoro-7-methyl-1,2,3,4-tetrahydro-[1,4]oxazepino[2,3-c]quinolin-6(7H)-one (1:1) [Example 11j] | 8.22
2 | (S)-10-((5-chloro-2-((3R,5R)-3-fluoro-5-hydroxypiperidin-1-yl)pyrimidin-4-yl)amino)-2-cyclopropyl-3,3-difluoro-7-methyl-1,2,3,4-tetrahydro-[1,4]oxazepino[2,3-c]quinolin-6(7H)-one:(S)-10-((5-chloro-2-((3S,5S)-3-fluoro-5-hydroxypiperidin-1-yl)pyrimidin-4-yl)amino)-2-cyclopropyl-3,3-difluoro-7-methyl-1,2,3,4-tetrahydro-[1,4]oxazepino[2,3-c]quinolin-6(7H)-one(1:1) [Example 11g] | 8.28
3 | (S)-10-((5-chloro-2-((R)-3,3-difluoro-5-hydroxypiperidin-1-yl)pyrimidin-4-yl)amino)-2-cyclopropyl-3,3-difluoro-7-methyl-1,2,3,4-tetrahydro-[1,4]oxazepino[2,3-c]quinolin-6(7H)-one:(S)-10-((5-chloro-2-((S)-3,3-difluoro-5-hydroxypiperidin-1-yl)pyrimidin-4-yl)amino)-2-cyclopropyl-3,3-difluoro-7-methyl-1,2,3,4-tetrahydro-[1,4]oxazepino[2,3-c]quinolin-6(7H)-one (1:1) [Example 12e] | 8.32
4 | (S)-10-((5-chloro-2-((R)-4,4-difluoro-3-methylpiperidin-1-yl)pyrimidin-4-yl)amino)-2-cyclopropyl-3,3-difluoro-7-methyl-1,2,3,4-tetrahydro-[1,4]oxazepino[2,3-c]quinolin-6(7H)-one or (S)-10-((5-chloro-2-((S)-4,4-difluoro-3-methylpiperidin-1-yl)pyrimidin-4-yl)amino)-2-cyclopropyl-3,3-difluoro-7-methyl-1,2,3,4-tetrahydro-[1,4]oxazepino[2,3-c]quinolin-6(7H)-one [Example 14b] | 7.33

Same assay, conditions: 1 nM Trx-6×His-BCL6, 300 nM BCOR-AF633 peptide, 2 hours incubation at room temperature; read-out: HTRF avg pIC50 (converted)

Row | Compound | IC50 [µM]
5 | Cn1c(=O)c2c(c3cc(Nc4ccnc(F)c4Cl)ccc31)N[C@@H](C1CC1)C(F)(F)CO2 [Example 4b, (S)-10-((3-chloro-2-fluoropyridin-4-yl)amino)-2-cyclopropyl-3,3-difluoro-7-methyl-1,2,3,4-tetrahydro-[1,4]oxazepino[2,3-c]quinolin-6(7H)-one] | 0.00631
6 | Cn1c(=O)c2c(c3cc(Nc4nc(N5C[C@@H](F)C[C@H]5CO)ncc4Cl)ccc31)N[C@@H](C1CC1)C(F)(F)CO2 [Example 12x48a, (S)-10-((5-chloro-2-((2S,4S)-4-fluoro-2-(hydroxymethyl)pyrrolidin-1-yl)pyrimidin-4-yl)amino)-2-cyclopropyl-3,3-difluoro-7-methyl-1,2,3,4-tetrahydro-[1,4]oxazepino[2,3-c]quinolin-6(7H)-one] | 0.00427
7 | Cn1c(=O)c2c(c3cc(Nc4nc(N5C[C@H](F)C[C@H]5CO)ncc4Cl)ccc31)N[C@@H](C1CC1)C(F)(F)CO2 [Example 12x48b, (S)-10-((5-chloro-2-((2S,4R)-4-fluoro-2-(hydroxymethyl)pyrrolidin-1-yl)pyrimidin-4-yl)amino)-2-cyclopropyl-3,3-difluoro-7-methyl-1,2,3,4-tetrahydro-[1,4]oxazepino[2,3-c]quinolin-6(7H)-one] | 0.0186
8 | CC1CCN(c2ncc(Cl)c(Nc3ccc4c(c3)c3c(c(=O)n4C)OCC(F)(F)[C@H](C4CC4)N3)n2)C1CO (stereo partly drawn) [Example 12x49, (2S)-10-((5-chloro-2-(2-(hydroxymethyl)-3-methylpyrrolidin-1-yl)pyrimidin-4-yl)amino)-2-cyclopropyl-3,3-difluoro-7-methyl-1,2,3,4-tetrahydro-[1,4]oxazepino[2,3-c]quinolin-6(7H)-one] | 0.00631
9 | C[C@H]1C[C@@H](O)CN(c2cc(Nc3ccc4c(c3)c3c(c(=O)n4C)OCC(F)(F)[C@H](C4CC4)N3)c(Cl)cn2)C1 [Example 13a, (S)-10-((5-chloro-2-((3R,5S)-3-hydroxy-5-methylpiperidin-1-yl)pyridin-4-yl)amino)-2-cyclopropyl-3,3-difluoro-7-methyl-1,2,3,4-tetrahydro-[1,4]oxazepino[2,3-c]quinolin-6(7H)-one] | 0.00676
10 | Cn1c(=O)c2c(c3cc(Nc4cc(N5CCC(F)(F)CC5)ncc4Cl)ccc31)N[C@@H](C1CC1)C(F)(F)CO2 [Example 13b] | 0.0309
11 | CN(C)c1cc(Nc2ccc3c(c2)c2c(c(=O)n3C)OCC(F)(F)[C@H](C3CC3)N2)c(Cl)cn1 [Example 13c12, (S)-2-cyclopropyl-10-((2-(dimethylamino)-5-chloropyridin-4-yl)amino)-3,3-difluoro-7-methyl-1,2,3,4-tetrahydro-[1,4]oxazepino[2,3-c]quinolin-6(7H)-one] | 0.0195
12 | Cn1c(=O)c2c(c3cc(Nc4cc(N5CCC(F)(F)CC5)ncc4F)ccc31)N[C@@H](C1CC1)C(F)(F)CO2 [Example 13f04, (S)-2-cyclopropyl-10-((2-(4,4-difluoropiperidin-1-yl)-5-fluoropyridin-4-yl)amino)-3,3-difluoro-7-methyl-1,2,3,4-tetrahydro-[1,4]oxazepino[2,3-c]quinolin-6(7H)-one] | 0.0589
13 | C[C@H]1C[C@@H](O)CN(c2cc(Nc3ccc4c(c3)c3c(c(=O)n4C)OCC(F)(F)[C@H](C4CC4)N3)c(F)cn2)C1 [Example 13f05, (S)-2-cyclopropyl-3,3-difluoro-10-((5-fluoro-2-((3R,5S)-3-hydroxy-5-methylpiperidin-1-yl)pyridin-4-yl)amino)-7-methyl-1,2,3,4-tetrahydro-[1,4]oxazepino[2,3-c]quinolin-6(7H)-one] | 0.00661
14 | CC1CN(c2ncc(F)c(Nc3ccc4c(c3)c3c(c(=O)n4C)OCC(F)(F)[C@H](C4CC4)N3)n2)CC(C)C1(F)F (stereo partly drawn) [Example 13p01, (2S)-2-cyclopropyl-10-((2-(4,4-difluoro-3,5-dimethylpiperidin-1-yl)-5-fluoropyrimidin-4-yl)amino)-3,3-difluoro-7-methyl-1,2,3,4-tetrahydro-[1,4]oxazepino[2,3-c]quinolin-6(7H)-one] | 0.0851
15 | Cn1c(=O)c2c(c3cc(Nc4nc(N5CCOCC5)ncc4F)ccc31)N[C@@H](C1CC1)C(F)(F)CO2 [Example 13p06, (S)-2-cyclopropyl-3,3-difluoro-10-((5-fluoro-2-morpholinopyrimidin-4-yl)amino)-7-methyl-1,2,3,4-tetrahydro-[1,4]oxazepino[2,3-c]quinolin-6(7H)-one] | 0.0117
16 | C[C@H]1CN(c2ncc(F)c(Nc3ccc4c(c3)c3c(c(=O)n4C)OCC(F)(F)[C@H](C4CC4)N3)n2)CCO1 [Example 13p08, (S)-2-cyclopropyl-3,3-difluoro-10-((5-fluoro-2-((S)-2-methylmorpholino)pyrimidin-4-yl)amino)-7-methyl-1,2,3,4-tetrahydro-[1,4]oxazepino[2,3-c]quinolin-6(7H)-one] | 0.0105
17 | Cn1c(=O)c2c(c3cc(Nc4nc(N5C[C@H]6CC[C@@H](C5)O6)ncc4F)ccc31)N[C@@H](C1CC1)C(F)(F)CO2 [Example 13p11, (S)-10-((2-((1R,5S)-8-oxa-3-azabicyclo[3.2.1]octan-3-yl)-5-fluoropyrimidin-4-yl)amino)-2-cyclopropyl-3,3-difluoro-7-methyl-1,2,3,4-tetrahydro-[1,4]oxazepino[2,3-c]quinolin-6(7H)-one] | 0.00724
18 | CN(C)c1ncc(F)c(Nc2ccc3c(c2)c2c(c(=O)n3C)OCC(F)(F)[C@H](C3CC3)N2)n1 [Example 13p12, (S)-2-cyclopropyl-10-((2-(dimethylamino)-5-fluoropyrimidin-4-yl)amino)-3,3-difluoro-7-methyl-1,2,3,4-tetrahydro-[1,4]oxazepino[2,3-c]quinolin-6(7H)-one] | 0.0191

Each compound was assayed on GC B cells and non-GC B cells in spleen cell cultures (assay: Mouse splenocyte flow cytometry immunology experiments). Conditions: spleen cell cultures, 48 hours, at 10 μM (FIG. 4).
Assay type: cell-based
Method: Male C57BL/6 mice were immunised in both flanks subcutaneously with CFA (100 μl of 4 mg/ml CFA). On day 8 the animals were terminated, spleens harvested and processed to single cell suspensions.
Splenocytes were resuspended in complete media (RPMI 1640+10% foetal calf serum, supplemented with 4 mM L-glutamine, 100 U/ml-100 μg/ml) penicillin/streptomycin and 50 μM B-mercaptoethanol (Gibco)). The cells were activated for 48 hours with 2 μg/ml αCD40 (ThermoFisher)+[…] IL-4 (Bio-techne) at 37° C. in a humidified CO2 incubator. Example 4b was added at the same time as activation in an 8-point dose titration. Following the culture period, cells were collected, washed with PBS (Gibco) and selected wells were counted using a LUNA™ Counter (Logos Biosystems).
Harvested cells were washed in PBS (Gibco) and stained with Invitrogen™ eBioscience™ Fixable Viability Dye eFluor 780 (Fisher scientific), then FcR blocked (Miltenyi Biotec) and stained with surface receptor antibodies (see Table 3 below). Cells were then washed in flow cytometry buffer (PBS supplemented with 1% BSA and 0.05% azide) and the secondary streptavidin was added. Cells were then washed, fixed and permeabilized in Transcription factor staining buffer (Fisher scientific); according to the manufacturer's instructions. Intracellular antibodies were then added to the samples. Following final washes, cells were fixed in 1% PFA and acquired on a BD LSR Fortessa™ (BD Bioscience). All analysis was carried out using FlowJo software v10.
In order to test the hypothesis that degradation or inhibition of Bcl6 may be able to modulate primary cells of the immune system, resulting in a decrease in their potential to generate autoantibodies, the above experiment was performed. Mice were immunised in order to drive the generation of germinal centre (GC) B cells. Spleens were then cultured in the presence or absence of a Bcl6 inhibitor (Example 4b) for 48 hours and non-GC B cells or GC B cells were identified using flow cytometry (FIG. 1).

Row | Compound | numbers of GC B cells as determined by expression of the lineage markers GL7 and CD95
19 | Cn1c(=O)c2c(c3cc(Nc4ccnc(F)c4Cl)ccc31)N[C@@H](C1CC1)C(F)(F)CO2 [Example 4b, (S)-10-((3-chloro-2-fluoropyridin-4-yl)amino)-2-cyclopropyl-3,3-difluoro-7-methyl-1,2,3,4-tetrahydro-[1,4]oxazepino[2,3-c]quinolin-6(7H)-one] | decreased

Same assay, conditions: splenocytes of CFA-immunised C57BL/6 mice, activated 48 hours with αCD40 + IL-4, various concentrations (FIG. 2)

Row | Compound | BCL6 expression in non-GC B cells (GeoMFI, flow cytometry)
20 | Cn1c(=O)c2c(c3cc(Nc4ccnc(F)c4Cl)ccc31)N[C@@H](C1CC1)C(F)(F)CO2 [Example 4b, (S)-10-((3-chloro-2-fluoropyridin-4-yl)amino)-2-cyclopropyl-3,3-difluoro-7-methyl-1,2,3,4-tetrahydro-[1,4]oxazepino[2,3-c]quinolin-6(7H)-one] | did not result in a reduction

Same assay, conditions: splenocytes of CFA-immunised C57BL/6 mice, activated 48 hours with αCD40 + IL-4, various concentrations (FIG. 3)

Row | Compound | Blimp expression by GC B cells (GeoMFI, flow cytometry)
21 | Cn1c(=O)c2c(c3cc(Nc4ccnc(F)c4Cl)ccc31)N[C@@H](C1CC1)C(F)(F)CO2 [Example 4b, (S)-10-((3-chloro-2-fluoropyridin-4-yl)amino)-2-cyclopropyl-3,3-difluoro-7-methyl-1,2,3,4-tetrahydro-[1,4]oxazepino[2,3-c]quinolin-6(7H)-one] | increase
